The record followed here is patent US12162890B2 (Novartis AG, priority 2015, dated 2024).

SMILES strings stand for the structures.

This test has as its target HEK293 cells with stable expression of the GRIN1 gene and tetracycline-inducible expression of the GRIN2B gene (NMDA receptor, NR2B) (Homo sapiens, UniProt Q13224). In words: Fluo-8 Ca2+ flux assay: reversal of Ro 25-6981-mediated suppression of the Ca2+ response to co-agonist (glutamate/glycine). Further: test concentration or dose not given here. Type of test: cell-based. Particulars: reversal of the Ro 25-6981 suppression of the Ca2+ response to co-agonist (glutamate/glycine).

Sequence of HEK293 cells with stable expression of the GRIN1 gene and tetracycline-inducible expression of the GRIN2B gene (NMDA receptor, NR2B) (Q13224 27-1484, other chains not shown): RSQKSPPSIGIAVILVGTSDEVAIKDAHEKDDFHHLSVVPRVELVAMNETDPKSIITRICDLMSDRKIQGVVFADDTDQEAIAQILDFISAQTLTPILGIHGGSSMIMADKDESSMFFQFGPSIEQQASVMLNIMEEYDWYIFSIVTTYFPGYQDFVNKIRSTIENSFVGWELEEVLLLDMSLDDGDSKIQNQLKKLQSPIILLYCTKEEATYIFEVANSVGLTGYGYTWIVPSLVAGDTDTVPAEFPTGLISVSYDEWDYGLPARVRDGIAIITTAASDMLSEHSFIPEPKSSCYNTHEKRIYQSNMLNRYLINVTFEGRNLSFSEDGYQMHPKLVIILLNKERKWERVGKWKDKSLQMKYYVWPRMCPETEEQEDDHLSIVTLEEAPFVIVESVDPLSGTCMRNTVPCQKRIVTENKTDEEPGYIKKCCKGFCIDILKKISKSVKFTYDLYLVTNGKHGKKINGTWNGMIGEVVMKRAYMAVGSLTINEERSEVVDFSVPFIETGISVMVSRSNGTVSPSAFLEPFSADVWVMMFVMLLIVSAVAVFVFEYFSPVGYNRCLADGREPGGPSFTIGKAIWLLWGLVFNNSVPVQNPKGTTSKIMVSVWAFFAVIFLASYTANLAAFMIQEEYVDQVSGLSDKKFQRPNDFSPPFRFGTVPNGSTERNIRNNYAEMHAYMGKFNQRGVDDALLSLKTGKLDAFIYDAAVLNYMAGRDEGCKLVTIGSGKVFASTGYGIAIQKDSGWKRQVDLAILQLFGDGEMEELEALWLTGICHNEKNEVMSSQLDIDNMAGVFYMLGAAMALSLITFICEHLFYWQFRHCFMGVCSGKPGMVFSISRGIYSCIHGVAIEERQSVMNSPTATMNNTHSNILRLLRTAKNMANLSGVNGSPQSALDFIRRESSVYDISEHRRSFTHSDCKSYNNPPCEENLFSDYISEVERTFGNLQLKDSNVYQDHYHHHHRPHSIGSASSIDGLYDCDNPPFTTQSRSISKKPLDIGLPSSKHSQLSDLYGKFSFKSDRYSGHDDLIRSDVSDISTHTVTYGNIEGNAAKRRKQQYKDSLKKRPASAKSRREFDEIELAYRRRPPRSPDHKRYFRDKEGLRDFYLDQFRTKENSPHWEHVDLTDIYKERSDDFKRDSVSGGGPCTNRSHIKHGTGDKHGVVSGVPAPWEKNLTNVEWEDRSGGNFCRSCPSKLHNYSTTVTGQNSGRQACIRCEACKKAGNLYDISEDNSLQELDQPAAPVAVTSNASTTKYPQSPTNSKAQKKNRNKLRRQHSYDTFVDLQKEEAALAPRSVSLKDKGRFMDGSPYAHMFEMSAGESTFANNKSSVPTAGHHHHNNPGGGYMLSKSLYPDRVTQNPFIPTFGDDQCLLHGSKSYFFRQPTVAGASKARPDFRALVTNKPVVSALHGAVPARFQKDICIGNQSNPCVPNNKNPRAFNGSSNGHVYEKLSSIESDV

On to `O=C(Cn1ccc2scc(-c3ccc(Cl)c(F)c3)c2c1=O)N1CCCC1` [Example 2, 3-(4-chloro-3-fluorophenyl)-5-(2-oxo-2-(pyrrolidin-1-yl)ethyl)thieno[3,2-c]pyridin-4(5H)-one], for which the “Response Recovered (%)” value amounted to 34%.
Regarding `O=C(Cn1cnc2[nH]cc(-c3cnc(Cl)c(C(F)(F)F)c3)c2c1=O)N1CC(F)(F)C1` [Example 182, 5-(6-chloro-5-(trifluoromethyl)pyridin-3-yl)-3-(2-(3,3-difluoroazetidin-1-yl)-2-oxoethyl)-3H-pyrrolo[2,3-d]pyrimidin-4(7H)-one], the “Response Recovered (%)” value was determined as 18%.
In the case of `Cc1ncc(-c2csc3ccn(CC(=O)N4CC(F)(CF)C4)c(=O)c23)cc1Cl` [Example 92, 3-(5-chloro-6-methylpyridin-3-yl)-5-(2-(3-fluoro-3-(fluoromethyl)azetidin-1-yl)-2-oxoethyl)thieno[3,2-c]pyridin-4(5H)-one], the “Response Recovered (%)” value was found to be 70%.
On to `O=C(Cn1ccn2ncc(-c3ccc(Cl)c(Cl)c3)c2c1=O)N1CC(F)(F)C1` [Example 325, 3-(3,4-dichlorophenyl)-5-(2-(3,3-difluoroazetidin-1-yl)-2-oxoethyl)pyrazolo[1,5-a]pyrazin-4(5H)-one], for which the “Response Recovered (%)” value is 50%.
In the case of `Cn1cc(-c2ccc(Cl)c(C(F)(F)F)c2)c2c(=O)n(CC(=O)N3CC(F)(F)C3)cnc21` [Example 168, 5-(4-chloro-3-(trifluoromethyl)phenyl)-3-(2-(3,3-difluoroazetidin-1-yl)-2-oxoethyl)-7-methyl-3H-pyrrolo[2,3-d]pyrimidin-4(7H)-one] it was 55%.
In the case of `O=C(Cn1cnc2csc(-c3ccc(Cl)c(C(F)(F)F)c3)c2c1=O)N1CC(F)(F)C1` [Example 362, 5-(4-chloro-3-(trifluoromethyl)phenyl)-3-(2-(3,3-difluoroazetidin-1-yl)-2-oxoethyl)thieno[3,4-d]pyrimidin-4(3H)-one] it was 39%.
In the case of `CC1(F)CN(C(=O)Cn2ccn3c(C4CC4)nc(-c4ccc(Cl)c(Cl)c4)c3c2=O)C1` [Example 435, 3-cyclopropyl-1-(3,4-dichlorophenyl)-7-(2-(3-fluoro-3-methylazetidin-1-yl)-2-oxoethyl)imidazo[1,5-a]pyrazin-8(7H)-one], the “Response Recovered (%)” value turned out to be 120%.
In the case of `O=C(Cn1cnc2[nH]cc(-c3ccc(F)c(Cl)c3)c2c1=O)N1CC(F)(F)C1` [Example 161, 5-(3-chloro-4-fluorophenyl)-3-(2-(3,3-difluoroazetidin-1-yl)-2-oxoethyl)-3H-pyrrolo[2,3-d]pyrimidin-4(7H)-onepyrrolo[2,3-d]pyrimidin-4(7H)-one], the “Response Recovered (%)” value stood at 58%.
For `Cc1cn(CC(=O)N2CCCC2)c(=O)c2c(-c3ccc(F)c(C(F)(F)F)c3)csc12` [Example 107, 3-[4-fluoro-3-(trifluoromethyl)phenyl]-7-methyl-5-[2-oxo-2-(pyrrolidin-1-yl)ethyl]-4H,5H-thieno[3,2-c]pyridin-4-one], the “Response Recovered (%)” value was 63%.
Turning to `O=C(Cn1ccc2[nH]cc(-c3ccc(Cl)c(F)c3)c2c1=O)N1CC(F)(F)C1` [Example 213, 3-(4-chloro-3-fluorophenyl)-5-(2-(3,3-difluoroazetidin-1-yl)-2-oxoethyl)-1H-pyrrolo[3,2-c]pyridin-4(5H)-one], the “Response Recovered (%)” value came out at 109%.
For `O=C(Cn1cnc2csc(-c3ccc(F)c(Cl)c3)c2c1=O)N1CC(F)(F)C1` [Example 360, 5-(3-chloro-4-fluorophenyl)-3-(2-(3,3-difluoroazetidin-1-yl)-2-oxoethyl)thieno[3,4-d]pyrimidin-4(3H)-one], the “Response Recovered (%)” value is recorded as 39%.
In the case of `O=C(Cn1cnc2onc(-c3ccc(Cl)cc3)c2c1=O)N1CCCC1` [Example 383, 3-(4-chlorophenyl)-5-(2-oxo-2-(pyrrolidin-1-yl)ethyl)isoxazolo[5,4-d]pyrimidin-4(5H)-one] it was 1%; in that of `O=C(Cn1cc(CN2CCC2)c2scc(-c3ccc(F)c(C(F)(F)F)c3)c2c1=O)N1CCC(F)C1` (stereo not drawn) [Example 118, 7-(azetidin-1-ylmethyl)-3-(4-fluoro-3-(trifluoromethyl)phenyl)-5-(2-(3-fluoropyrrolidin-1-yl)-2-oxoethyl)thieno[3,2-c]pyridin-4(5H)-one], 77%; in that of `CC1(F)CN(C(=O)Cn2ccc3scc(-c4cncc(Cl)n4)c3c2=O)C1` [Example 145, 3-(6-chloropyrazin-2-yl)-5-(2-(3-fluoro-3-methylazetidin-1-yl)-2-oxoethyl)thieno[3,2-c]pyridin-4(5H)-one], 3%.
Consider `O=C(Cn1ccc2cccc(-c3ccc(Cl)c(F)c3)c2c1=O)N1CCC(F)C1` (stereo not drawn) [Example 306, 8-(4-chloro-3-fluorophenyl)-2-(2-(3-fluoropyrrolidin-1-yl)-2-oxoethyl)isoquinolin-1(2H)-one], for which the “Response Recovered (%)” value amounted to 25%.
Regarding `Cn1cc(-n2cc(-c3ccc(Cl)c(Cl)c3)c3c(=O)n(CC(=O)N4CCC(F)C4)ccc32)cn1` (stereo not drawn) [Example 283, 3-(3,4-dichlorophenyl)-5-(2-(3-fluoropyrrolidin-1-yl)-2-oxoethyl)-1-(1-methyl-1H-pyrazol-4-yl)-1H-pyrrolo[3,2-c]pyridin-4(5H)-one], the “Response Recovered (%)” value was found to be 82%.
For `O=C(Cn1cnc2[nH]nc(-c3ccc(Cl)c(C(F)(F)F)c3)c2c1=O)N1CCCC1` [Example 317, 3-(4-chloro-3-(trifluoromethyl)phenyl)-5-(2-oxo-2-(pyrrolidin-1-yl)ethyl)-1H-pyrazolo[3,4-d]pyrimidin-4(5H)-one], the “Response Recovered (%)” value is reported as 8%.
Turning to `O=C(Cn1cnc2csc(-c3ccc(C(F)(F)F)cc3)c2c1=O)N1CC(F)(F)C1` [Example 358, 3-(2-(3,3-difluoroazetidin-1-yl)-2-oxoethyl)-5-(4-(trifluoromethyl)phenyl)thieno[3,4-d]pyrimidin-4(3H)-one], the “Response Recovered (%)” value is 12%.
Consider `CCN(CC)Cc1cn(CC(=O)N2CCC(F)C2)c(=O)c2c(-c3ccc(F)c(C(F)(F)F)c3)csc12` (stereo not drawn) [Example 117, 7-((diethylamino)methyl)-3-(4-fluoro-3-(trifluoromethyl)phenyl)-5-(2-(3-fluoropyrrolidin-1-yl)-2-oxoethyl)thieno[3,2-c]pyridin-4(5H)-one 2,2,2-trifluoroacetate], for which the “Response Recovered (%)” value was 30%.
In the case of `CC1(N)CN(C(=O)Cn2ccc3scc(-c4ccc(F)c(C(F)(F)F)c4)c3c2=O)C1` [Example 96, 5-(2-(3-amino-3-methylazetidin-1-yl)-2-oxoethyl)-3-(4-fluoro-3-(trifluoromethyl)phenyl)thieno[3,2-c]pyridin-4(5H)-one] it was 43%; in that of `CC1(F)CN(C(=O)Cn2ccc3c(c(-c4ccc(Cl)c(Cl)c4)cn3C3CC3)c2=O)C1` [Example 288, 1-cyclopropyl-3-(3,4-dichlorophenyl)-5-(2-(3-fluoro-3-methylazetidin-1-yl)-2-oxoethyl)-1H-pyrrolo[3,2-c]pyridin-4(5H)one], 130%.
In the case of `CC1(F)CN(C(=O)Cn2ccc3c(c(-c4ccc(F)c(Cl)c4)cn3CC(F)(F)F)c2=O)C1` [Example 280, 3-(3-chloro-4-fluorophenyl)-5-(2-(3-fluoro-3-methylazetidin-1-yl)-2-oxoethyl)-1-(2,2,2-trifluoroethyl)-1H-pyrrolo[3,2-c]pyridin-4(5H)-one] it was 73%.
For the compound `O=C(Cn1ccc2scc(-c3ccc(F)c(C(F)(F)F)c3)c2c1=O)N1CC(F)(CF)C1` [Example 83, 5-(2-(3-fluoro-3-(fluoromethyl)azetidin-1-yl)-2-oxoethyl)-3-(4-fluoro-3-(trifluoromethyl)phen-yl)thieno[3,2-c]pyridin-4(5H)-one], the “Response Recovered (%)” value stood at 140%.
Turning to `Cn1cc(-n2cc(-c3ccc(F)c(Cl)c3)c3c(=O)n(CC(=O)N4CC(C)(F)C4)ccc32)nn1` [Example 271, 3-(3-chloro-4-fluorophenyl)-5-(2-(3-fluoro-3-methylazetidin-1-yl)-2-oxoethyl)-1-(1-methyl-1H-1,2,3-triazol-4-yl)-1H-pyrrolo[3,2-c]pyridin-4(5H)-one], the “Response Recovered (%)” value was 140%.
In the case of `O=C(Cn1ccn2ncc(-c3ccc(F)c(C(F)(F)F)c3)c2c1=O)N1CC(F)(F)C1` [Example 324, 5-(2-(3,3-difluoroazetidin-1-yl)-2-oxoethyl)-3-(4-fluoro-3-(trifluoromethyl)phenyl)pyrazolo[1,5-a]pyrazin-4(5H)-one] it was 51%; in that of `O=C(Cn1cc(C2CC2)c2scc(-c3ccc(Cl)c(C(F)(F)F)c3)c2c1=O)N1CCCC1` [Example 101, 3-(4-chloro-3-(trifluoromethyl)phenyl)-7-cyclopropyl-5-(2-oxo-2-(pyrrolidin-1-yl)ethyl)thieno[3,2-c]pyridin-4(5H)-one], 29%.
In the case of `CN(C)Cc1cn(CC(=O)N2CCC(F)C2)c(=O)c2c(-c3ccc(F)c(Cl)c3)csc12` (stereo not drawn) [Example 120, 3-(3-chloro-4-fluorophenyl)-7-((dimelhylamino)methyl)-5-(2-(3-fluoropyrrolidin-1-yl)-2-oxoethyl)thieno[3,2-c]pyridin-4(5H)-one] it was 61%; in that of `CCn1cc(-c2ccc(Cl)c(C(F)(F)F)c2)c2c(=O)n(CC(=O)N3CC(F)(F)C3)cnc21` [Example 169], 57%; in that of `CC1(F)CN(C(=O)Cn2ccc3c(c(-c4ccc(F)c(Cl)c4)cn3CCF)c2=O)C1` [Example 281, 3-(3-chloro-4-fluorophenyl)-5-(2-(3-fluoro-3-methylazetidin-1-yl)-2-oxoethyl)-1-(2-fluoroethyl)-1H-pyrrolo[3,2-c]pyridin-4(5H)-one], 150%.
On to `O=C(Cn1cnc2[nH]cc(-c3ccc(Cl)c(C(F)(F)F)c3)c2c1=O)N1CC(F)(F)C1` [Example 166, 5-(4-chloro-3-(trifluoromethyl)phenyl)-3-(2-(3,3-difluoroazetidin-1-yl)-2-oxoethyl)-3H-pyrrolo[2,3-d]pyrimidin-4(7H)-one], for which the “Response Recovered (%)” value came out at 65%.
